For 49 compounds, microsomal CLint results are on record in ChEMBL document CHEMBL4699662, “Identification and structure-activity relationship studies of small molecule inhibitors of the human cathepsin D” (Bioorg Med Chem, 2021).

Data set [1] in a line: in vitro. Conditions: human, liver microsomes.
Data set [2] in a line: in vitro. The conditions noted are these: mouse, liver microsomes.

The structures appear in SMILES notation.

`CCOC[C@@H](NC(=N)NC(=O)Cc1ccc(OC)c(OC)c1)C(=O)Nc1cc(S(N)(=O)=O)ccc1C`: the microsomal CLint at 0.5 h, 1 µM in data set [1] was 59.1 µL/min/mg; in data set [2], 86.8 µL/min/mg.
For the compound `CNS(=O)(=O)c1ccc(C)c(NC(=O)[C@H](NC(=N)NC(=O)Cc2ccc(OC)c(OC)c2)c2ccccc2)c1`, the microsomal CLint at 0.5 h, 1 µM in data set [1] was 281 µL/min/mg; in data set [2], 270 µL/min/mg.
For `COc1ccc(CC(=O)NC(=N)N[C@@H](C(=O)Nc2cc(S(N)(=O)=O)ccc2C)C(C)C)cc1OC`, the microsomal CLint at 0.5 h, 1 µM in data set [1] was found to be 64.3 µL/min/mg; in data set [2] it was 174 µL/min/mg.
On to `COc1ccc(CC(=O)NC(=N)N[C@H](Cc2cccs2)C(=O)Nc2cc(S(N)(=O)=O)ccc2C)cc1OC`, for which the microsomal CLint at 0.5 h, 1 µM in data set [1] was 264 µL/min/mg; in data set [2], 260 µL/min/mg.
As to `COc1ccc(CC(=O)NC(=N)N[C@H](CC2CCCCC2)C(=O)Nc2cc(S(=O)(=O)NC3CC3)ccc2C)cc1OC`, the microsomal CLint at 0.5 h, 1 µM in data set [1] was 179 µL/min/mg; in data set [2] it was 354 µL/min/mg.
For `CNS(=O)(=O)c1ccc(C)c(NC(=O)[C@@H](CC2CCCCC2)NC(=N)NC(=O)Cc2ccc(S(C)(=O)=O)cc2)c1`, in that order: 241 µL/min/mg and 208 µL/min/mg.
Regarding `CNS(=O)(=O)c1ccc(C)c(NC(=O)[C@@H](CC2CCCCC2)NC(=N)NC(=O)Cc2ccc(F)c(OC)c2)c1`, the figures for the microsomal CLint at 0.5 h, 1 µM in data set [1] and in data set [2] were 287 µL/min/mg and 326 µL/min/mg, respectively.
Take `Cc1ccc(S(=O)(=O)N(C)C)cc1NC(=O)[C@@H](CC1CCCCC1)NC(=N)NC(=O)C1CCCc2ccccc21` (stereo partly drawn): the values for the microsomal CLint at 0.5 h, 1 µM in data set [1] and in data set [2] were 237 µL/min/mg and 259 µL/min/mg, respectively.
On to `COc1ccc(CC(=O)NC(=N)N[C@H](CC2CCCCC2)C(=O)Nc2cc(S(N)(=O)=O)ccc2C)cc1OC`, for which the microsomal CLint at 0.5 h, 1 µM in data set [1] was determined as 171 µL/min/mg; in data set [2], 161 µL/min/mg.
For `Cc1ccc(S(=O)(=O)N(C)C)cc1NC(=O)[C@@H](CC1CCCCC1)NC(=N)NC(=O)c1ccc2c(c1)OCCO2`, in that order: 253 µL/min/mg and 272 µL/min/mg.
In the same order, the values of `Cc1ccc(S(=O)(=O)N(C)C)cc1NC(=O)[C@@H](CC1CCCCC1)NC(=N)NC(=O)Cc1ccc(C(F)(F)F)cc1` are 291 µL/min/mg and 282 µL/min/mg.
In the case of `COc1ccc(CC(=O)NC(=N)N[C@H](CC2CCCCC2)C(=O)Nc2cc(S(=O)(=O)N(C)C)ccc2C)cc1OC`, the microsomal CLint at 0.5 h, 1 µM turned out to be 204 µL/min/mg in data set [1] and 226 µL/min/mg in data set [2].
`COc1ccc(CC(=O)NC(=N)N[C@H](CC2CC2)C(=O)Nc2cc(S(N)(=O)=O)ccc2C)cc1OC`: the results for the microsomal CLint at 0.5 h, 1 µM in data set [1] and in data set [2] were 108 µL/min/mg and 229 µL/min/mg, respectively.
With `COc1ccc(CC(=O)NC(=N)N[C@H](C)C(=O)Nc2cc(S(N)(=O)=O)ccc2C)cc1OC`, the values for the microsomal CLint at 0.5 h, 1 µM in data set [1] and in data set [2] were 27.8 µL/min/mg and 50.6 µL/min/mg, respectively.
For `COc1ccc(CCC(=O)NC(=N)N[C@H](CC2CCCCC2)C(=O)Nc2cc(S(=O)(=O)N(C)C)ccc2C)cc1OC`, in that order: 169 µL/min/mg and 234 µL/min/mg.
In the same order, the values of `COc1ccc(CC(=O)NC(=N)N[C@@H](C(=O)Nc2cc(S(N)(=O)=O)ccc2C)C(C)(C)C)cc1OC` are 108 µL/min/mg and 211 µL/min/mg.
As to `COC[C@@H](NC(=N)NC(=O)Cc1ccc(OC)c(OC)c1)C(=O)Nc1cc(S(N)(=O)=O)ccc1C`, the microsomal CLint at 0.5 h, 1 µM came to 26.9 µL/min/mg in data set [1] and 47.2 µL/min/mg in data set [2].
In the case of `CNS(=O)(=O)c1ccc(C)c(NC(=O)[C@@H](CC(C)C)NC(=N)NC(=O)Cc2ccc(OC)c(OC)c2)c1`, the intrinsic clearance (microsomal CLint) at 0.5 h, 1 µM in data set [1] was found to be 239 µL/min/mg; in data set [2], 188 µL/min/mg.
On to `CNS(=O)(=O)c1ccc(C)c(NC(=O)[C@@H](CC2CCCCC2)NC(=N)NC(=O)Cc2ccc(OC)c(C(F)(F)F)c2)c1`, for which the microsomal CLint at 0.5 h, 1 µM in data set [1] was 188 µL/min/mg; in data set [2], 215 µL/min/mg.
With `CNS(=O)(=O)c1ccc(C)c(NC(=O)[C@@H](CC2CCCCC2)NC(=N)NC(=O)Cc2ccc(OC)c(Cl)c2)c1`, the microsomal CLint at 0.5 h, 1 µM in data set [1] amounted to 295 µL/min/mg; in data set [2], 273 µL/min/mg.
`COc1ccc(CC(=O)NC(=N)N[C@H](CO)C(=O)Nc2cc(S(N)(=O)=O)ccc2C)cc1OC`: the microsomal CLint at 0.5 h, 1 µM in data set [1] was 22.5 µL/min/mg; in data set [2], 15.5 µL/min/mg.
For `COc1ccc(CC(=O)NC(=N)NCC(=O)Nc2cc(S(N)(=O)=O)ccc2C)cc1OC`, in that order: 18 µL/min/mg and 20 µL/min/mg.
In the same order, the values of `CC[C@@H](NC(=N)NC(=O)Cc1ccc(OC)c(OC)c1)C(=O)Nc1cc(S(N)(=O)=O)ccc1C` are 55.1 µL/min/mg and 118 µL/min/mg.
Turning to `Cc1ccc(S(=O)(=O)N(C)C)cc1NC(=O)[C@@H](CC1CCCCC1)NC(=N)NC(=O)Cc1ccc(Cl)c(Cl)c1`, the microsomal CLint at 0.5 h, 1 µM in data set [1] turned out to be 248 µL/min/mg; in data set [2], 238 µL/min/mg.
For the compound `COc1ccc(CC(=O)NC(=N)N[C@H](CC(C)C)C(=O)Nc2cc(S(N)(=O)=O)ccc2C)cc1OC`, the microsomal CLint at 0.5 h, 1 µM in data set [1] was found to be 160 µL/min/mg; in data set [2], 102 µL/min/mg.
Turning to `Cc1ccc(S(=O)(=O)N(C)C)cc1NC(=O)[C@@H](CC1CCCCC1)NC(=N)NC(=O)Cc1cc(C(F)(F)F)cc(C(F)(F)F)c1`, the microsomal CLint at 0.5 h, 1 µM came out at 246 µL/min/mg in data set [1] and 258 µL/min/mg in data set [2].
Take `COc1ccc(CC(=O)NC(=N)N[C@@H](C(=O)Nc2cc(S(N)(=O)=O)ccc2C)C2CCCCC2)cc1OC`: the values for the microsomal CLint at 0.5 h, 1 µM in data set [1] and in data set [2] were 225 µL/min/mg and 210 µL/min/mg, respectively.
In the same order, the values of `COc1ccc(CC(=O)NC(=N)N[C@H](Cc2cc3ccccc3s2)C(=O)Nc2cc(S(N)(=O)=O)ccc2C)cc1OC` are 251 µL/min/mg and 239 µL/min/mg.
`CNS(=O)(=O)c1ccc(C)c(NC(=O)[C@@H](Cc2ccccc2)NC(=N)NC(=O)Cc2ccc(OC)c(OC)c2)c1`: the figures for the microsomal CLint at 0.5 h, 1 µM in data set [1] and in data set [2] were 131 µL/min/mg and 149 µL/min/mg, respectively.
For `CNS(=O)(=O)c1ccc(C)c(NC(=O)[C@H](NC(=N)NC(=O)Cc2ccc(OC)c(OC)c2)C2CCCCC2)c1`, in that order: 211 µL/min/mg and 173 µL/min/mg.
Consider `COc1ccc(CC(=O)NC(=N)N[C@H](C(=O)Nc2cc(S(N)(=O)=O)ccc2C)C2CCCC2)cc1OC`, for which the figures for the microsomal CLint at 0.5 h, 1 µM in data set [1] and in data set [2] were 174 µL/min/mg and 179 µL/min/mg, respectively.
For the compound `CNS(=O)(=O)c1ccc(C)c(NC(=O)[C@@H](CC2CCCCC2)NC(=N)NC(=O)Cc2ccc(Cl)c(Cl)c2)c1`, the figures for the microsomal CLint at 0.5 h, 1 µM in data set [1] and in data set [2] were 336 µL/min/mg and 176 µL/min/mg, respectively.
For `COc1ccc(CC(=O)NC(=N)N[C@H](CSC)C(=O)Nc2cc(S(N)(=O)=O)ccc2C)cc1OC`, the microsomal CLint at 0.5 h, 1 µM in data set [1] is 187 µL/min/mg; in data set [2], 197 µL/min/mg.
With `COc1ccc(CC(=O)NC(=N)N[C@@H](C(=O)Nc2cc(S(N)(=O)=O)ccc2C)C2CC2)cc1OC`, the microsomal CLint at 0.5 h, 1 µM in data set [1] was found to be 40 µL/min/mg; in data set [2], 100 µL/min/mg.
In the same order, the values of `CNS(=O)(=O)c1ccc(C)c(NC(=O)[C@@H](CC2CCCCC2)NC(=N)NC(=O)Cc2cc(Cl)cc(C(F)(F)F)c2)c1` are 239 µL/min/mg and 220 µL/min/mg.
For `CCN(CC)S(=O)(=O)c1ccc(C)c(NC(=O)[C@@H](CC2CCCCC2)NC(=N)NC(=O)Cc2ccc(OC)c(OC)c2)c1`, in that order: 221 µL/min/mg and 227 µL/min/mg.
As for `Cc1ccc(S(=O)(=O)N(C)C)cc1NC(=O)[C@@H](CC1CCCCC1)NC(=N)NC(=O)Cc1cccc(C(F)(F)F)c1`, the microsomal CLint at 0.5 h, 1 µM in data set [1] is 238 µL/min/mg; in data set [2] it was 270 µL/min/mg.
As to `COCC[C@@H](NC(=N)NC(=O)Cc1ccc(OC)c(OC)c1)C(=O)Nc1cc(S(N)(=O)=O)ccc1C`, the microsomal CLint at 0.5 h, 1 µM is 43.1 µL/min/mg in data set [1] and 57.3 µL/min/mg in data set [2].
For `COc1ccc(CC(=O)NC(=N)N[C@H](CC2CCCCC2)C(=O)Nc2cc(S(=O)(=O)N3CCOCC3)ccc2C)cc1OC`, the figures for the microsomal CLint at 0.5 h, 1 µM in data set [1] and in data set [2] were 212 µL/min/mg and 237 µL/min/mg, respectively.
As to `COc1ccc(CC(=O)NC(=N)N[C@H](Cc2ccccc2)C(=O)Nc2cc(S(N)(=O)=O)ccc2C)cc1OC`, the microsomal CLint at 0.5 h, 1 µM in data set [1] was 191 µL/min/mg; in data set [2], 193 µL/min/mg.
In the case of `Cc1ccc(S(=O)(=O)N(C)C)cc1NC(=O)[C@@H](CC1CCCCC1)NC(=N)NC(=O)Cc1ccc2ccccc2c1`, the figures for the microsomal CLint at 0.5 h, 1 µM in data set [1] and in data set [2] were 169 µL/min/mg and 200 µL/min/mg, respectively.
`COc1ccc(CC(=O)NC(=N)N[C@H](CC2CCCCC2)C(=O)Nc2cc(S(=O)(=O)NC3CCCCC3)ccc2C)cc1OC`: the microsomal CLint at 0.5 h, 1 µM is 326 µL/min/mg in data set [1] and 232 µL/min/mg in data set [2].
Regarding `COc1ccc(CC(=O)NC(=N)N[C@H](CC2CCCCC2)C(=O)Nc2cc(S(=O)(=O)N(C)C)ccc2C)cc1F`, the intrinsic clearance (microsomal CLint) at 0.5 h, 1 µM in data set [1] and in data set [2] was 241 µL/min/mg in each case.
In the case of `CCCC[C@@H](NC(=N)NC(=O)Cc1ccc(OC)c(OC)c1)C(=O)Nc1cc(S(N)(=O)=O)ccc1C`, the microsomal CLint at 0.5 h, 1 µM was determined as 215 µL/min/mg in data set [1] and 231 µL/min/mg in data set [2].
For `CNS(=O)(=O)c1ccc(C)c(NC(=O)[C@@H](CC2CCCCC2)NC(=N)NC(=O)Cc2cc(C(F)(F)F)cc(C(F)(F)F)c2)c1`, in that order: 175 µL/min/mg and 187 µL/min/mg.
For `COc1ccc(CC(=O)NC(=N)N[C@H](Cc2ccccc2F)C(=O)Nc2cc(S(N)(=O)=O)ccc2C)cc1OC`, in that order: 171 µL/min/mg and 149 µL/min/mg.
`COc1ccc(CC(=O)NC(=N)N[C@H](CC2CCCCC2)C(=O)Nc2cc(S(=O)(=O)N3CCN(C)CC3)ccc2C)cc1OC`: the microsomal CLint at 0.5 h, 1 µM in data set [1] is 271 µL/min/mg; in data set [2] it was 212 µL/min/mg.
In the same order, the values of `CNS(=O)(=O)c1ccc(C)c(NC(=O)[C@H](NC(=N)NC(=O)Cc2ccc(OC)c(OC)c2)C(C)C)c1` are 179 µL/min/mg and 104 µL/min/mg.
`NC(=O)N1c2ccccc2C=Cc2ccccc21` [CARBAMAZEPINE]: the figures for the microsomal CLint at 0.5 h, 1 µM in data set [1] and in data set [2] were 6 µL/min/mg and 7 µL/min/mg, respectively.
